Assay results as given in the NIST ThermoML archive (doi:10.1016/j.tca.2015.12.007).
Where “and” joins values, the source holds several entries; their conditions need not be identical. Identical values can stand only once. ± gives the expanded uncertainty stated by the source.

Key:
[1] = molar enthalpy of vaporization or sublimation; conditions: 298.15 K; Crystal; Static calorimetry
[2] = Crystal, Calculated from knudsen effusion weight loss

## CC(C)C1C(=O)NC(=O)NC1=O [5-isopropylbarbituric acid]
[1]
  molar enthalpy: 125 ± 3.8 kJ/mol
[2]; 369.16 K
  vapor or sublimation pressure: 0.000115 ± 2e-05 kPa and 0.000107 ± 2e-05 kPa and 0.000106 ± 2e-05 kPa
[2]; 371.12 K
  vapor or sublimation pressure: 0.000138 ± 2.1e-05 kPa and 0.000135 ± 2.1e-05 kPa
[2]; 373.08 K
  vapor or sublimation pressure: 0.000167 ± 2.1e-05 kPa and 0.000169 ± 2.1e-05 kPa and 0.000166 ± 2.1e-05 kPa
[2]; 375.16 K
  vapor or sublimation pressure: 0.000204 ± 2.1e-05 kPa and 0.000202 ± 2.1e-05 kPa and 0.000216 ± 2.1e-05 kPa
[2]; 377.12 K
  vapor or sublimation pressure: 0.000254 ± 2.2e-05 kPa and 0.000251 ± 2.2e-05 kPa and 0.000257 ± 2.2e-05 kPa
[2]; 379.09 K
  vapor or sublimation pressure: 0.000314 ± 2.3e-05 kPa and 0.000311 ± 2.3e-05 kPa and 0.000303 ± 2.3e-05 kPa
[2]; 381.16 K
  vapor or sublimation pressure: 0.000371 ± 2.4e-05 kPa and 0.00037 ± 2.4e-05 kPa and 0.000389 ± 2.4e-05 kPa
[2]; 383.11 K
  vapor or sublimation pressure: 0.000461 ± 2.6e-05 kPa and 0.000453 ± 2.6e-05 kPa and 0.000465 ± 2.6e-05 kPa
[2]; 385.09 K
  vapor or sublimation pressure: 0.000559 ± 2.8e-05 kPa and 0.000555 ± 2.8e-05 kPa and 0.000554 ± 2.8e-05 kPa
[2]; 387.15 K
  vapor or sublimation pressure: 0.000674 ± 3.1e-05 kPa and 0.000675 ± 3.1e-05 kPa and 0.000708 ± 3.2e-05 kPa
[2]; 389.13 K
  vapor or sublimation pressure: 0.000839 ± 3.6e-05 kPa and 0.000843 ± 3.6e-05 kPa and 0.000844 ± 3.6e-05 kPa
[2]; 391.11 K
  vapor or sublimation pressure: 0.000998 ± 4.1e-05 kPa and 0.001017 ± 7.9e-05 kPa and 0.001009 ± 7.8e-05 kPa
